Test results: PubChem BioAssay (NCI)
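Step 1: Grow cells in 96-well plates. Step 2: Expose to compound for 48 hours at 5 concentrations. Step 3: Interpolate endpoints linearly; if unreached, use highest concentration. TGI: total growth inhibition.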

system: SK-MEL-2 melanoma; experiment: growth of human tumour cells (NCI), 48 h

Row | SMILES | TGI [µM]
1 | CCCCNC(=S)Nc1nc(C(=O)NNC(=S)NCC)cs1 | > 100

system: TK-10 renal; experiment: growth of human tumour cells (NCI), 48 h

Row | SMILES | TGI [µM]
2 | COC(=O)C1=CC2C(=O)c3ccccc3C1(c1ccccc1)N2C1CCCCC1 (configuration not stated) | > 100
3 | O=C(O)CC1OCC=C2CN3CCC45c6ccccc6NC4C1C2CC35 (configuration not stated) | > 100
4 | C=C(C)C1CC=C(C)C(=O)C1 (configuration not stated) | > 100
5 | N#Cc1ccc(NC(=NCC(=O)O)Nc2cccc3ccccc23)cc1 | > 10
6 | CC(=O)c1c(-c2ccc(Cl)cc2)c(-c2ccc(Cl)cc2)n[nH]c1=O | > 100
7 | CC(=O)C(C(=O)c1ccc(C)cc1)[C@@H]1OC(C)(C)O[C@@H]1[C@H]1COC(C)(C)O1 (some centres not stated) | > 100
8 | CC12CCCC(O)C1CCC1=CC3(CCC12)SCCS3 (configuration not stated) | > 10
9 | CCCCNC(=S)Nc1nc(C(=O)NNC(=S)NCC)cs1 | > 100

system: SN12C renal; experiment: growth of human tumour cells (NCI), 48 h

Row | SMILES | TGI [µM]
10 | COC(=O)C1=CC2C(=O)c3ccccc3C1(c1ccccc1)N2C1CCCCC1 (configuration not stated) | > 100
11 | O=C(O)CC1OCC=C2CN3CCC45c6ccccc6NC4C1C2CC35 (configuration not stated) | > 100
12 | C=C(C)C1CC=C(C)C(=O)C1 (configuration not stated) | > 100
13 | N#Cc1ccc(NC(=NCC(=O)O)Nc2cccc3ccccc23)cc1 | > 10
14 | CC(=O)c1c(-c2ccc(Cl)cc2)c(-c2ccc(Cl)cc2)n[nH]c1=O | 93.3
15 | CC(=O)C(C(=O)c1ccc(C)cc1)[C@@H]1OC(C)(C)O[C@@H]1[C@H]1COC(C)(C)O1 (some centres not stated) | 17.3
16 | CC12CCCC(O)C1CCC1=CC3(CCC12)SCCS3 (configuration not stated) | > 10
17 | CCCCNC(=S)Nc1nc(C(=O)NNC(=S)NCC)cs1 | > 100

system: SF-539 CNS; experiment: growth of human tumour cells (NCI), 48 h

Row | SMILES | TGI [µM]
18 | COC(=O)C1=CC2C(=O)c3ccccc3C1(c1ccccc1)N2C1CCCCC1 (configuration not stated) | 41.5
19 | O=C(O)CC1OCC=C2CN3CCC45c6ccccc6NC4C1C2CC35 (configuration not stated) | > 100
20 | C=C(C)C1CC=C(C)C(=O)C1 (configuration not stated) | > 100
21 | CC(=O)c1c(-c2ccc(Cl)cc2)c(-c2ccc(Cl)cc2)n[nH]c1=O | 64.2
22 | CC(=O)C(C(=O)c1ccc(C)cc1)[C@@H]1OC(C)(C)O[C@@H]1[C@H]1COC(C)(C)O1 (some centres not stated) | 13.2
23 | CCCCNC(=S)Nc1nc(C(=O)NNC(=S)NCC)cs1 | > 100

system: UACC-62 melanoma; experiment: growth of human tumour cells (NCI), 48 h

Row | SMILES | TGI [µM]
24 | O=C(O)CC1OCC=C2CN3CCC45c6ccccc6NC4C1C2CC35 (configuration not stated) | > 100
25 | N#Cc1ccc(NC(=NCC(=O)O)Nc2cccc3ccccc23)cc1 | > 10
26 | CC(=O)c1c(-c2ccc(Cl)cc2)c(-c2ccc(Cl)cc2)n[nH]c1=O | 43.3
27 | CC(=O)C(C(=O)c1ccc(C)cc1)[C@@H]1OC(C)(C)O[C@@H]1[C@H]1COC(C)(C)O1 (some centres not stated) | 25.8
28 | CC12CCCC(O)C1CCC1=CC3(CCC12)SCCS3 (configuration not stated) | > 10
29 | CCCCNC(=S)Nc1nc(C(=O)NNC(=S)NCC)cs1 | > 100

system: HT29 colon; experiment: growth of human tumour cells (NCI), 48 h

Row | SMILES | TGI [µM]
30 | COC(=O)C1=CC2C(=O)c3ccccc3C1(c1ccccc1)N2C1CCCCC1 (configuration not stated) | > 100
31 | O=C(O)CC1OCC=C2CN3CCC45c6ccccc6NC4C1C2CC35 (configuration not stated) | > 100
32 | C=C(C)C1CC=C(C)C(=O)C1 (configuration not stated) | > 100
33 | N#Cc1ccc(NC(=NCC(=O)O)Nc2cccc3ccccc23)cc1 | > 10
34 | CC(=O)c1c(-c2ccc(Cl)cc2)c(-c2ccc(Cl)cc2)n[nH]c1=O | > 100
35 | CC(=O)C(C(=O)c1ccc(C)cc1)[C@@H]1OC(C)(C)O[C@@H]1[C@H]1COC(C)(C)O1 (some centres not stated) | 20
36 | CC12CCCC(O)C1CCC1=CC3(CCC12)SCCS3 (configuration not stated) | > 10
37 | CCCCNC(=S)Nc1nc(C(=O)NNC(=S)NCC)cs1 | > 100

system: MDA-N; experiment: growth of human tumour cells (NCI), 48 h

Row | SMILES | TGI [µM]
38 | COC(=O)C1=CC2C(=O)c3ccccc3C1(c1ccccc1)N2C1CCCCC1 (configuration not stated) | > 100
39 | O=C(O)CC1OCC=C2CN3CCC45c6ccccc6NC4C1C2CC35 (configuration not stated) | > 100
40 | C=C(C)C1CC=C(C)C(=O)C1 (configuration not stated) | > 100
41 | N#Cc1ccc(NC(=NCC(=O)O)Nc2cccc3ccccc23)cc1 | > 10
42 | CC(=O)c1c(-c2ccc(Cl)cc2)c(-c2ccc(Cl)cc2)n[nH]c1=O | > 100
43 | CC(=O)C(C(=O)c1ccc(C)cc1)[C@@H]1OC(C)(C)O[C@@H]1[C@H]1COC(C)(C)O1 (some centres not stated) | 54.3
44 | CC12CCCC(O)C1CCC1=CC3(CCC12)SCCS3 (configuration not stated) | > 10
45 | CCCCNC(=S)Nc1nc(C(=O)NNC(=S)NCC)cs1 | > 100

system: HCT-116 colon; experiment: growth of human tumour cells (NCI), 48 h

Row | SMILES | TGI [µM]
46 | COC(=O)C1=CC2C(=O)c3ccccc3C1(c1ccccc1)N2C1CCCCC1 (configuration not stated) | > 100
47 | O=C(O)CC1OCC=C2CN3CCC45c6ccccc6NC4C1C2CC35 (configuration not stated) | > 100
48 | C=C(C)C1CC=C(C)C(=O)C1 (configuration not stated) | > 100
49 | CC(=O)c1c(-c2ccc(Cl)cc2)c(-c2ccc(Cl)cc2)n[nH]c1=O | > 100
50 | CC(=O)C(C(=O)c1ccc(C)cc1)[C@@H]1OC(C)(C)O[C@@H]1[C@H]1COC(C)(C)O1 (some centres not stated) | 15.4
51 | CCCCNC(=S)Nc1nc(C(=O)NNC(=S)NCC)cs1 | > 100

system: ACHN renal; experiment: growth of human tumour cells (NCI), 48 h

Row | SMILES | TGI [µM]
52 | COC(=O)C1=CC2C(=O)c3ccccc3C1(c1ccccc1)N2C1CCCCC1 (configuration not stated) | > 100
53 | O=C(O)CC1OCC=C2CN3CCC45c6ccccc6NC4C1C2CC35 (configuration not stated) | > 100
54 | C=C(C)C1CC=C(C)C(=O)C1 (configuration not stated) | > 100
55 | CC(=O)c1c(-c2ccc(Cl)cc2)c(-c2ccc(Cl)cc2)n[nH]c1=O | 66.1
56 | CC(=O)C(C(=O)c1ccc(C)cc1)[C@@H]1OC(C)(C)O[C@@H]1[C@H]1COC(C)(C)O1 (some centres not stated) | 32.5
57 | CC12CCCC(O)C1CCC1=CC3(CCC12)SCCS3 (configuration not stated) | > 10
58 | CCCCNC(=S)Nc1nc(C(=O)NNC(=S)NCC)cs1 | > 100

system: T-47D breast; experiment: growth of human tumour cells (NCI), 48 h

Row | SMILES | TGI [µM]
59 | O=C(O)CC1OCC=C2CN3CCC45c6ccccc6NC4C1C2CC35 (configuration not stated) | > 100
60 | C=C(C)C1CC=C(C)C(=O)C1 (configuration not stated) | > 100
61 | N#Cc1ccc(NC(=NCC(=O)O)Nc2cccc3ccccc23)cc1 | > 10
62 | CC(=O)c1c(-c2ccc(Cl)cc2)c(-c2ccc(Cl)cc2)n[nH]c1=O | > 100
63 | CC(=O)C(C(=O)c1ccc(C)cc1)[C@@H]1OC(C)(C)O[C@@H]1[C@H]1COC(C)(C)O1 (some centres not stated) | > 49.8
64 | CC12CCCC(O)C1CCC1=CC3(CCC12)SCCS3 (configuration not stated) | > 10
65 | CCCCNC(=S)Nc1nc(C(=O)NNC(=S)NCC)cs1 | 71.3

system: M14 melanoma; experiment: growth of human tumour cells (NCI), 48 h

Row | SMILES | TGI [µM]
66 | COC(=O)C1=CC2C(=O)c3ccccc3C1(c1ccccc1)N2C1CCCCC1 (configuration not stated) | > 100
67 | O=C(O)CC1OCC=C2CN3CCC45c6ccccc6NC4C1C2CC35 (configuration not stated) | > 100
68 | C=C(C)C1CC=C(C)C(=O)C1 (configuration not stated) | > 100
69 | N#Cc1ccc(NC(=NCC(=O)O)Nc2cccc3ccccc23)cc1 | > 10
70 | CC(=O)c1c(-c2ccc(Cl)cc2)c(-c2ccc(Cl)cc2)n[nH]c1=O | > 100
71 | CC(=O)C(C(=O)c1ccc(C)cc1)[C@@H]1OC(C)(C)O[C@@H]1[C@H]1COC(C)(C)O1 (some centres not stated) | 35.8
72 | CC12CCCC(O)C1CCC1=CC3(CCC12)SCCS3 (configuration not stated) | > 10
73 | CCCCNC(=S)Nc1nc(C(=O)NNC(=S)NCC)cs1 | > 100

system: MOLT-4 leukemia; experiment: growth of human tumour cells (NCI), 48 h

Row | SMILES | TGI [µM]
74 | COC(=O)C1=CC2C(=O)c3ccccc3C1(c1ccccc1)N2C1CCCCC1 (configuration not stated) | > 100
75 | O=C(O)CC1OCC=C2CN3CCC45c6ccccc6NC4C1C2CC35 (configuration not stated) | > 100
76 | C=C(C)C1CC=C(C)C(=O)C1 (configuration not stated) | > 100
77 | N#Cc1ccc(NC(=NCC(=O)O)Nc2cccc3ccccc23)cc1 | > 10
78 | CC(=O)c1c(-c2ccc(Cl)cc2)c(-c2ccc(Cl)cc2)n[nH]c1=O | > 100
79 | CC(=O)C(C(=O)c1ccc(C)cc1)[C@@H]1OC(C)(C)O[C@@H]1[C@H]1COC(C)(C)O1 (some centres not stated) | 22.1
80 | CCCCNC(=S)Nc1nc(C(=O)NNC(=S)NCC)cs1 | > 100

system: NCI-H460 lung; experiment: growth of human tumour cells (NCI), 48 h

Row | SMILES | TGI [µM]
81 | COC(=O)C1=CC2C(=O)c3ccccc3C1(c1ccccc1)N2C1CCCCC1 (configuration not stated) | 40.6
82 | O=C(O)CC1OCC=C2CN3CCC45c6ccccc6NC4C1C2CC35 (configuration not stated) | > 100
83 | C=C(C)C1CC=C(C)C(=O)C1 (configuration not stated) | > 100
84 | CC(=O)c1c(-c2ccc(Cl)cc2)c(-c2ccc(Cl)cc2)n[nH]c1=O | > 100
85 | CC(=O)C(C(=O)c1ccc(C)cc1)[C@@H]1OC(C)(C)O[C@@H]1[C@H]1COC(C)(C)O1 (some centres not stated) | > 88.9

system: A498 renal; experiment: growth of human tumour cells (NCI), 48 h

Row | SMILES | TGI [µM]
86 | COC(=O)C1=CC2C(=O)c3ccccc3C1(c1ccccc1)N2C1CCCCC1 (configuration not stated) | > 100
87 | O=C(O)CC1OCC=C2CN3CCC45c6ccccc6NC4C1C2CC35 (configuration not stated) | > 100
88 | CC(=O)c1c(-c2ccc(Cl)cc2)c(-c2ccc(Cl)cc2)n[nH]c1=O | 77.4
89 | CC(=O)C(C(=O)c1ccc(C)cc1)[C@@H]1OC(C)(C)O[C@@H]1[C@H]1COC(C)(C)O1 (some centres not stated) | > 75.7
90 | CCCCNC(=S)Nc1nc(C(=O)NNC(=S)NCC)cs1 | > 100

system: EKVX NSCLC; experiment: growth of human tumour cells (NCI), 48 h

Row | SMILES | TGI [µM]
91 | COC(=O)C1=CC2C(=O)c3ccccc3C1(c1ccccc1)N2C1CCCCC1 (configuration not stated) | > 100
92 | O=C(O)CC1OCC=C2CN3CCC45c6ccccc6NC4C1C2CC35 (configuration not stated) | > 100
93 | C=C(C)C1CC=C(C)C(=O)C1 (configuration not stated) | > 100
94 | N#Cc1ccc(NC(=NCC(=O)O)Nc2cccc3ccccc23)cc1 | > 10
95 | CC(=O)c1c(-c2ccc(Cl)cc2)c(-c2ccc(Cl)cc2)n[nH]c1=O | > 100
96 | CC(=O)C(C(=O)c1ccc(C)cc1)[C@@H]1OC(C)(C)O[C@@H]1[C@H]1COC(C)(C)O1 (some centres not stated) | > 100
97 | CCCCNC(=S)Nc1nc(C(=O)NNC(=S)NCC)cs1 | > 100

system: OVCAR-8 ovarian; experiment: growth of human tumour cells (NCI), 48 h

Row | SMILES | TGI [µM]
98 | COC(=O)C1=CC2C(=O)c3ccccc3C1(c1ccccc1)N2C1CCCCC1 (configuration not stated) | > 100
99 | O=C(O)CC1OCC=C2CN3CCC45c6ccccc6NC4C1C2CC35 (configuration not stated) | > 100
100 | C=C(C)C1CC=C(C)C(=O)C1 (configuration not stated) | > 100
101 | N#Cc1ccc(NC(=NCC(=O)O)Nc2cccc3ccccc23)cc1 | > 10
102 | CC(=O)c1c(-c2ccc(Cl)cc2)c(-c2ccc(Cl)cc2)n[nH]c1=O | > 100
